Reference: article PMC9795544, “Identifying Novel Inhibitors for Hepatic Organic Anion Transporting Polypeptides by Machine Learning-Based Virtual Screening” (Journal of Chemical Information and Modeling, 2022)
Like-named read-outs stand apart in the source and are kept apart here.

Legend:
[1] = biological target: T1, OATP1B1 (Homo sapiens, UniProt Q9Y6L6); assay: Pyranine transport inhibition in A431 cells overexpressing OATP1B1; format: cell-based
T1 construct: expressed in transfected cells; host or cells: A431 cells
T1 sequence (Q9Y6L6 1-691): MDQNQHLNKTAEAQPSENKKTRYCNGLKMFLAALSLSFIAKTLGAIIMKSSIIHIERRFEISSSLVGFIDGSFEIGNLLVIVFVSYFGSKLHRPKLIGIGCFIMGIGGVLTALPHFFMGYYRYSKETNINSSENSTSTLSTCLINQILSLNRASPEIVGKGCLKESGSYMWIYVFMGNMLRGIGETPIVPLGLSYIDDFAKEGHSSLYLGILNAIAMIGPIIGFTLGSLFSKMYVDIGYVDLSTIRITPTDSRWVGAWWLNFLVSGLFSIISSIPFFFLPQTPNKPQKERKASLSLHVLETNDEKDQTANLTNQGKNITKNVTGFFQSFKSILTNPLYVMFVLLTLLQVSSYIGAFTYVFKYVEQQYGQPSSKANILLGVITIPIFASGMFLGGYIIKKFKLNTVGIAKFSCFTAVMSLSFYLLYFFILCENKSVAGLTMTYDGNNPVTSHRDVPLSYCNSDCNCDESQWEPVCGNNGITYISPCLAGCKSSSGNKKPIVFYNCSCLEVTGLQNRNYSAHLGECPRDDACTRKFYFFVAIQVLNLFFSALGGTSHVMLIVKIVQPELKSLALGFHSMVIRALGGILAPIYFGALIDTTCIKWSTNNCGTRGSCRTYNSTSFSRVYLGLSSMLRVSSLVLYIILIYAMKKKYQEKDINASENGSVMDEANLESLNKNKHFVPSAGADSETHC
Protocol: (§1) A431 cells overexpressing OATP1B1, OATP1B3, or OATP2B1 or their mock transfected controls were generated previously[30] and maintained in Dulbecco’s modified Eagle medium (DMEM, Gibco, Thermofisher Scientific, Waltham, MA, US) supplemented with 10% fetal bovine serum, 2 mM L-glutamine, 100 units/mL penicillin, and 100 μg/mL streptomycin. Expression and function of OATPs in the cell lines were checked regularly.
(§2) Interaction with OATP1B1, OATP1B3, or OATP2B1 was tested in an indirect transport assay using pyranine (8-hydroxypyrene-1,3,6-trisulfonic acid trisodium salt, H1529, Sigma, Merck, Budapest, Hungary) as the test substrate[31],[32] A431 cells overexpressing OATP1B1, OATP1B3, or OATP2B1 or their mock transfected controls were seeded on 96-well plates in a density of 8 × 10^4 cells per well in 200 μL of cell culture medium 1 day prior to the transport measurements. […] The transport reaction was started by the addition of 50 μL of uptake buffer containing pyranine in a final concentration of 10 μM (OATP1B1) or 20 μM (OATP1B3 and OATP2B1), and the cells were further incubated at 37 °C for 15 min (OATP1B1 and OATP2B1) or 30 min (OATP1B3). The reaction was stopped by removing the supernatant. After repeated washing with ice-cold PBS, fluorescence was determined in an Enspire plate reader (PerkinElmer, Waltham, MA) with excitation/emission wavelengths of 460/510 nm. OATP-dependent transport was calculated by extracting fluorescence measured in mock transfected cells and normalized to the fluorescence signal obtained in the absence of the tested compounds (100%). Experiments were repeated in at least three biological replicates.

[2] = biological target: T2, OATP1B3 (Homo sapiens, UniProt Q9NPD5); assay: Pyranine transport inhibition in A431 cells overexpressing OATP1B3; format: cell-based; conditions: for IC50: read-out: IC50 (μM) OATP1B3
T2 construct: expressed in transfected cells; host or cells: A431 cells
T2 sequence (Q9NPD5 1-702): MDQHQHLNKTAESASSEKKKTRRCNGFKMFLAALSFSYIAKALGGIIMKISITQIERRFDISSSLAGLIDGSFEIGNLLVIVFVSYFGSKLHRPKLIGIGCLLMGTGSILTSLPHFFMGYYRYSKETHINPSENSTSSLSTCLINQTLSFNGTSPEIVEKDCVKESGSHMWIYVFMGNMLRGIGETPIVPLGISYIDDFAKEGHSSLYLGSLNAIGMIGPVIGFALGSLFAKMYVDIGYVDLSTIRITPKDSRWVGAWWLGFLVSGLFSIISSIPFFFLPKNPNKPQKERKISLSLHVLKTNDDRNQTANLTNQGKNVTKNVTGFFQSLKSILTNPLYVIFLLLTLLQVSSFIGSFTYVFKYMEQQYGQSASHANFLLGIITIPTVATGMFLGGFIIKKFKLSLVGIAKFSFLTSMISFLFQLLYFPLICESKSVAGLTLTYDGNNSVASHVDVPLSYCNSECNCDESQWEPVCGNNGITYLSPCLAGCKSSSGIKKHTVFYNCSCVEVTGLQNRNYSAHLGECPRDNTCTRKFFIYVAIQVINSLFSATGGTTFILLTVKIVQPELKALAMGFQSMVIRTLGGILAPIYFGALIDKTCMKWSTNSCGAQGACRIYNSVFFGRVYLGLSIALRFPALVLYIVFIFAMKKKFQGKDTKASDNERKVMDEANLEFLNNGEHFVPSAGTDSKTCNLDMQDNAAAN
Protocol: as §1, §2

[3] = biological target: T3, OATP2B1 (Homo sapiens, UniProt O94956); assay: Pyranine transport inhibition in A431 cells overexpressing OATP2B1; format: cell-based; conditions: for IC50: read-out: IC50 (μM) OATP2B1
T3 construct: expressed in transfected cells; host or cells: A431 cells
T3 sequence (O94956 1-709): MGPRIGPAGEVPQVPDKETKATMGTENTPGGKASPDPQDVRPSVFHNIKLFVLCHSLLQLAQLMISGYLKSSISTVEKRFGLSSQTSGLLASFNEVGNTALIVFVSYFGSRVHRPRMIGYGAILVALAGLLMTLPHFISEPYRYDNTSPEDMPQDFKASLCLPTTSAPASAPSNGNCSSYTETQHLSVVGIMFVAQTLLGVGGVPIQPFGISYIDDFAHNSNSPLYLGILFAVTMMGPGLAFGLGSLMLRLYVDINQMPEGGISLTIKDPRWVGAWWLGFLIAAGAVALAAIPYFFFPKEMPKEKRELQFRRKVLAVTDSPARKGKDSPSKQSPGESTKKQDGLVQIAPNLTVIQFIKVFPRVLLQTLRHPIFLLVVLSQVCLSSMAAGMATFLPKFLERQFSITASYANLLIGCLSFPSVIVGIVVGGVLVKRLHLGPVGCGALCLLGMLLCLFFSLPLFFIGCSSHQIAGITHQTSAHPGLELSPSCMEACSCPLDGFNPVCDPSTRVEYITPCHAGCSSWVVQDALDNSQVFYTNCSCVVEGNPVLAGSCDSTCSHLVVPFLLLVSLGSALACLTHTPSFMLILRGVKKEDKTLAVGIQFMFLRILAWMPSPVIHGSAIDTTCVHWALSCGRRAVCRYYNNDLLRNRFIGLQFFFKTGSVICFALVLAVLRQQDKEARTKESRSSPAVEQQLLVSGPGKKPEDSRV
Protocol: as §1, §2

[4] = tested on: OATP2B1; set-up: method as in earlier work; conditions: ref 1 (Karlgren et al.); cited from earlier work
[5] = tested on: OATP2B1; set-up: method as in PMID 33932771; conditions: highest affinity inhibitor reported in the literature; cited from earlier work
[6] = tested on: OATP1B1; set-up: method as in earlier work; conditions: ref 1 (Karlgren et al.); cited from earlier work
[7] = initial three-point screen (1, 10, 100 μM), category by concentration needed for 50% inhibition, pyranine 10 μM, 15 min, pH 5.5, read-out: IC50 (μM) OATP1B1
[8] = initial three-point screen (1, 10, 100 μM), category by concentration needed for 50% inhibition, pyranine 20 μM, 30 min, pH 5.5
[9] = initial three-point screen (1, 10, 100 μM), category by concentration needed for 50% inhibition, pyranine 20 μM, 15 min, pH 5.5
[10] = full dose-response curve, eight concentrations, Hill1 fit
[11] = initial three-point screen (1, 10, 100 μM), category by concentration needed for 50% inhibition, pyranine 10 μM, 15 min, pH 5.5

Compound | IC50 [1, 7] | IC50 [2, 8] | IC50 [3, 9] | IC50 (μM) OATP1B1 [1, 11] | IC50 (μM) OATP1B3 [2, 8] | further results
Cc1cc(NS(=O)(=O)c2ccc(NC(=O)Cc3coc4c(C)c(C)ccc34)cc2)nc(C)n1 [F5, Cc1cc(NS(=O)(=O)c2ccc(NC(=O)Cc3coc4c(C)c(C)ccc34)cc2)nc(C)n1] | 1 to 10 µM | 1 to 10 µM | 1 to 10 µM |  |  | 
O=C(NCc1ccc(N2CCOCC2)nc1)c1ccccc1CSc1nc2ccccc2[nH]1 [F6, O=C(NCc1ccc(nc1)N2CCOCC2)c3ccccc3CSc4nc5ccccc5[nH]4] | > 10 µM | > 10 µM | 1 to 10 µM |  |  | 
CCC(C)c1ccc(-n2c(SCC(=O)N3c4ccccc4CC3C)nc3ccccc3c2=O)cc1 (stereo not shown) [G4, CCC(C)c1ccc(cc1)N2C(=Nc3ccccc3C2=O)SCC(=O)N4C(C)Cc5ccccc45] |  |  | 1 to 10 µM | no effect | no effect | IC50 (μM) OATP1B1 [1, 10]: no effect; IC50 (μM) OATP1B3 [2, 10]: no effect; IC50 [3, 10]: ~6 µM
Cc1cc(C)c(C(=O)CSc2nc3ccccc3c(=O)n2Cc2ccc(F)cc2)c(C)c1 [H4, Cc1cc(C)c(C(=O)CSC2=Nc3ccccc3C(=O)N2Cc4ccc(F)cc4)c(C)c1] |  |  |  | no effect | no effect | IC50 (μM) OATP2B1 [3, 9]: no effect
CC(=O)Nc1ccc(S(=O)(=O)Nc2nc3ccccc3nc2NCc2ccccc2)cc1 [H6, CC(=O)Nc1ccc(cc1)S(=O)(=O)Nc2nc3ccccc3nc2NCc4ccccc4] |  |  | > 10 µM | no effect | no effect | 
C#Cc1cccc(Nc2ncnc3cc(OCCOC)c(OCCOC)cc23)c1 [erlotinib] |  |  |  |  |  | IC50 [4]: 550 nM
C[C@]12CC[C@@H]3c4cc(P(=O)(O)O)ccc4CC[C@H]3[C@@H]1CCC2=O [estra-1,3,5(10)-trien-17-on-2-ylphosphonate] |  |  |  |  |  | IC50 [5]: 41 nM
CC[C@H](C)C(=O)O[C@H]1C[C@H](O)C=C2C=C[C@H](C)[C@H](CC[C@@H](O)C[C@@H](O)CC(=O)O)[C@H]21 [pravastatin] |  |  |  |  |  | IC50 [6]: 3.6 µM

Further lines, with some results ahead:

IC50 [1, 7] | IC50 [2, 8] | IC50 [3, 9] | Compound | IC50 (μM) OATP1B1 [1, 11] | IC50 (μM) OATP1B3 [2, 8] | further results
1 to 10 µM | 1 to 10 µM | 1 to 10 µM | O=C(Nc1ccccc1)C1CCN(C(=O)c2cc(-c3ccccc3)nc3ccccc23)CC1 [G2, O=C(Nc1ccccc1)C2CCN(CC2)C(=O)c3cc(nc4ccccc34)c5ccccc5] |  |  | 
> 10 µM | 1 to 10 µM | 1 to 10 µM | COc1cc2c(cc1NC(=O)CN1C(=O)NC(Cc3c[nH]c4ccccc34)C1=O)oc1ccccc12 (stereo not shown) [G5, COc1cc2c(oc3ccccc23)cc1NC(=O)CN4C(=O)NC(Cc5c[nH]c6ccccc56)C4=O] |  |  | 
 |  | > 10 µM | Cc1ccc(N2C(=O)/C(=C\Nc3nc4ccccc4nc3N3CCCC3)c3ccccc3C2=O)c(C)c1 [G6, Cc1ccc(N2C(=O)\C(=C/Nc3nc4ccccc4nc3N5CCCC5)\c6ccccc6C2=O)c(C)c1] | no effect | no effect | 
> 10 µM | > 10 µM | 1 to 10 µM | O=C(/C=C/c1cn(Cc2ccccc2)nn1)N1CCCC(c2nc3ccccc3s2)C1 (stereo not shown) [H2, O=C(\C=C\c1cn(Cc2ccccc2)nn1)N3CCCC(C3)c4nc5ccccc5s4] |  |  | 
 |  | < 1 µM | COC(=O)c1c(NC(=O)CN2C(=O)NC3(CCc4ccccc4C3)C2=O)sc2c1CCCCC2 (stereo not shown) [H5, COC(=O)c1c2CCCCCc2sc1NC(=O)CN3C(=O)NC4(CCc5ccccc5C4)C3=O] |  |  | IC50 ([1]; full dose-response curve, eight concentrations, Hill1 fit, read-out: IC50 (μM) OATP1B1): ~25 µM; IC50 at 15 min ([1]; human, pH 5.5, probe pyranine 10 μM, initial three-point screen (1, 10, 100 μM), category by concentration needed for 50% inhibition, pyranine 10 μM, 15 min, pH 5.5, read-out: IC50 (μM) OATP1B1): > 10 µM; IC50 [2, 10]: 6.95 µM; IC50 at 30 min ([2]; human, pH 5.5, probe pyranine 20 μM, initial three-point screen (1, 10, 100 μM), category by concentration needed for 50% inhibition, pyranine 20 μM, 30 min, pH 5.5): > 10 µM; fold lower affinity on OATP1B3 than on OATP2B1 ([2]; ratio of IC50 OATP1B3 / OATP2B1): 18 fold; IC50 [3, 10]: 0.39 µM
